Assay results taken from patent US20230095618A1, “OIL-IN-WATER EMULSION COMPRISING A SOLID LIPID MATERIAL” (priority 2020, published 2023).

Test system: yellow fever mosquito, Aedes aegypti Rockefeller strain
Assay: Repulsive effect on mosquitoes: number of landings on a treated warm glass plate in a cage
Type: in vivo
Conditions: reference actives diluted at 12.5% in ethanol; for number of mosquito landings: glass plate at 34° C., cage with 30 unfed A. aegypti females
Protocol: Controlling efficacy was tested against the yellow fever mosquito, Aedes aegypti Rockefeller strain. […] Observations of controlling efficacy were made on host-seeking females of uniform age, 5 to 12 days post-eclosion from pupae. Tested hungry females had access to 10% sugar solution but were not blood-fed. The testing protocol was adapted from the method described in Krober et al. (2010; doi: 10.2987/10-6044.1). A controlled amount […] of stimulus was deposited in the center of a sandblasted glass plate (60 mm diam) and maintained at 34° C. The glass plate was then placed in a polycarbonate cage (200×260×180 mm) containing 30 A. aegypti unfed female mosquitoes. The number of landings of the mosquitoes as a function of time was monitored using a camera and allowed to evaluate the repulsive effect of the stimulus. Stimuli tested were water, ethanol or diluted insect repellent active as controls and samples according to example 1. When only water is applied onto the glass surface, the average number of mosquitoes landing is about 63. The reference sample consisting of pure IR3535® diluted at 12.5% in ethanol reduces the number of landing from about 63 landings in the control test to about 12 landings 2 hrs after application (81% reduction), 15 after 4 hrs (−76%) and 30 after 6 hrs (−52%). Emulsion 1 according to example 1 reduces the number of landings from about 63 landings in the control test to about 12 landings 2 hrs after application (81% reduction), 4 after 4 hrs (−93%) and 3 after 6 hrs (−95%). […] Emulsion 2 according to example 1 reduces the number of landings from about 63 landings in the control test to about 8 landings 2 hrs after application (87% reduction), 2 after 4 hrs (−97%) and 4 after 6 hrs (−93%).

Compound | number of mosquito landings (2 hrs after application) | reduction of the number of landings versus water control (2 hrs after application) | number of mosquito landings (after 4 hrs) | change of the number of landings versus water control (given as negative %) (after 4 hrs) | number of mosquito landings (after 6 hrs) | change of the number of landings versus water control (given as negative %) (after 6 hrs)
CCCCN(CCC(=O)OCC)C(C)=O [IR3535®, ethyl 3-(acetyl(butyl)amino)propanoate] | about 12 landings | 81% | ~15 landings | −76% | ~30 landings | −52%
CCN(CC)C(=O)c1cccc(C)c1 [DEET, N,N-diethyl-3-methylbenzamide] | about 15 landings | 72% | ~10 landings | −81% | ~19 landings | −65%
